Laboratory results reported in patent US20110100079A1, “METHOD FOR IMPARTING STRESS TOLERANCE TO PLANT” (priority 2007, published 2011).

Legend:
Assay type in all cases: in vivo
[1] = test system: “Momotaro” tomato; experiment: Example 6 salt stress test (tomato), hydroponic culture; details: 23° C., 100 ppm, 2 weeks; for Fresh weight, relative value (untreated plot = 100), Test 5 / Fresh weight, relative value (untreated plot = 100), Test 8 / Fresh weight, relative value (untreated plot = 100), Test 6 / Fresh weight, relative value (untreated plot = 100), Test 7: hydroponic culture; for Fresh weight, relative value (untreated plot = 100), Test 5: EC 2.7 mS/cm; for Fresh weight, relative value (untreated plot = 100), Test 5 / Fresh weight, relative value (untreated plot = 100), Test 6 / Fresh weight, relative value (untreated plot = 100), Test 7 / Fresh weight, relative value (untreated plot = 100), Comparison 2: two-leaf stage; for Fresh weight, relative value (untreated plot = 100), Test 8 / Fresh weight, relative value (untreated plot = 100), Test 6: EC 3.9 mS/cm; for Fresh weight, relative value (untreated plot = 100), Test 8: five-leaf stage; for Fresh weight, relative value (untreated plot = 100), Test 7: EC 4.8 mS/cm; for Fresh weight, relative value (untreated plot = 100), Comparison 2: stress-free: hydroponic culture, EC 1.3 mS/cm
Procedure: (§1) (a) Comparative example conditions (stress-free optimum growth conditions) Cultivation temperature: 23° C., EC: 1.3 mS/cm (Otsuka ½A formulation) (b) Example conditions (salt stress conditions) Cultivation temperature: 23° C., EC: 2.7, 3.9, 4.8 mS/cm (cultivation with Kureha gardening soil) (2) Illuminance: 5000 Lux (fluorescent light), light/dark cycle: 16 hours/8 hours (3) Employed soil: Kureha gardening soil manufactured by Kureha Corporation (fertilizer components: N:P:K=0.4:1.9:0.6 g/kg soil) (4) Employed solution culture medium: Otsuka ½A formulation: a mixed solution of Otsuka House No. 1 (N:P:K=10:8:27) 7.5 g/10 L and Otsuka House No. 2 (N:P:K:Ca=10:0:0:23) 5 g/10 L, total nitrogen: 130 ppm, phosphoric acid: 60 ppm, potassium: 203 ppm) (5) Cultivation period: 2 weeks (6) Plant preparation: A 50-cell tray was filled with Kureha gardening soil manufactured by Kureha Corporation (fertilizer components: N:P:K=0.4:1.9:0.6 g/kg soil), and seeds of a “Momotaro” tomato or tubers of a “Danshaku” potato were sowed, thinly covered with Kureha gardening soil, and sufficiently watered to allow the seeds or the tubers to sprout. When the leaves in the 2-leaf stage or the 5-leaf stage fully unfolded, the soil on the tomato roots or the potato roots was carefully washed away with running water, and a test was performed. (7) Test chemicals: POE (20) sorbitan monolauric acid ester: Reodol TW-L120 (Kao Corporation) POE (20) sorbitan monopalmitic acid ester: Reodol TW-P120 (Kao Corporation) POE (20) sorbitan monostearic acid ester: Reodol TW-S120 (Kao Corporation) POE (20) sorbitan monooleic acid ester: Reodol TW-O120 (Kao Corporation) Sorbitan monooleic acid ester: Emasol 0-10(F) (Kao Corporation) POE (6) sorbitan monooleic acid ester: Reodol TW-O106 (Kao Corporation) Alkyl (number of carbon atoms: 10) polyglucoside: AG-10LK (Kao Corporation) Alkyl (number of carbon atoms: 12 to 14) polyglucoside: AG-124 (Kao Corporation) Sucrose fatty acid ester (number of carbon atoms: C18, HLB: 5): S-570 (Mitsubishi-Kagaku Foods Corporation) Sucrose fatty acid ester (number of carbon atoms: C18, HLB: 9): S-970 (Mitsubishi-Kagaku Foods Corporation) Sucrose fatty acid ester (number of carbon atoms: C18, HLB: 11): S-1170 (Mitsubishi-Kagaku Foods Corporation) Sucrose fatty acid ester (number of carbon atoms: C18, HLB: 15): 5-1570 (Mitsubishi-Kagaku Foods Corporation) Sucrose fatty acid ester (number of carbon atoms: C16, HLB: 15): P-1570 (Mitsubishi-Kagaku Foods Corporation) Sucrose fatty acid ester (number of carbon atoms: C18:1, HLB: 15): O-1570 (Mitsubishi-Kagaku Foods Corporation) (8) Amount of treatment solution applied: 10 ml/specimen for leaf spraying, 250 ml/specimen for hydroponic culture (treatment of underground portion) (9) 50 ml/specimen for soil culture (treatment of underground portion)
The environmental conditions in a climatic chamber were controlled so as to have a temperature of 23° C., an illuminance by a fluorescent light of 5000 Lux, and a daily light-dark cycle of a 16-hour light period and an 8-hour dark period. Tomatoes as prepared above were planted in 250 ml polyethylene bottles each filled with a solution culture medium having a different EC value. Different EC values were achieved by taking a ½ Otsuka A formulation having an EC value of 1.3 as a standard and suitably increasing the fertilizer concentration through proportional counting. A treatment solution containing a compound of Table 1 in a specific concentration (the remainder was water) was prepared and sprayed onto the leaves or applied to the underground portion. In each test plot, 10 specimens were prepared for replication, and the average of the fresh weight of each specimen 2 weeks after the beginning of the test was calculated and expressed as a relative value where “100” indicates a result identical to that of the untreated plot of a given EC condition. […]

[2] = test system: “Momotaro” tomato; experiment: Example 6 salt stress test (tomato), soil culture; details: 23° C., 100 ppm, 2 weeks; for Fresh weight, relative value (untreated plot = 100), Test 1 / Fresh weight, relative value (untreated plot = 100), Test 4 / Fresh weight, relative value (untreated plot = 100), Test 2 / Fresh weight, relative value (untreated plot = 100), Test 3: soil culture; for Fresh weight, relative value (untreated plot = 100), Test 1: EC 1.3 mS/cm; for Fresh weight, relative value (untreated plot = 100), Test 1 / Fresh weight, relative value (untreated plot = 100), Test 2 / Fresh weight, relative value (untreated plot = 100), Test 3 / Fresh weight, relative value (untreated plot = 100), Comparison 1: pF 1.7, two-leaf stage; for Fresh weight, relative value (untreated plot = 100), Test 4 / Fresh weight, relative value (untreated plot = 100), Test 2: EC 2 mS/cm; for Fresh weight, relative value (untreated plot = 100), Test 4: pF 1.7, five-leaf stage; for Fresh weight, relative value (untreated plot = 100), Test 3: EC 3 mS/cm; for Fresh weight, relative value (untreated plot = 100), Comparison 1: stress-free: soil culture, EC 1 mS/cm
Procedure: (1) A. soil culture (a) Comparative example conditions (stress-free optimum growth conditions) Cultivation temperature: 23° C., EC: 1.0 mS/cm (cultivation with Kureha gardening soil), pF value: 1.7 (capillaries in a saturated state) (b) Example conditions (salt stress conditions) Cultivation temperature: 23° C., EC: 1.3, 2.0, 3.0 mS/cm (cultivation with Kureha gardening soil), pF value: 1.7 (capillaries in a saturated state)
as §1
The environmental conditions in a climatic chamber were controlled so as to have a temperature of 23° C., an illuminance by a fluorescent light of 5000 Lux, and a daily light-dark cycle of a 16-hour light period and an 8-hour dark period. Tomatoes as prepared above were transplanted in size-3 (9 cm) pots. During the test period, the EC value was controlled by adding a suitable amount of a 10% NaCl solution once a day so as to attain a specific salt stress value. A treatment solution containing a compound of Table 1 in a specific concentration (the remainder was water) was prepared and sprayed onto the leaves or applied to the underground portions. […]

[3] = test system: tomato; experiment: Example 7 drying stress test (tomato), soil culture; details: 23° C., 100 ppm, 2 weeks; for Fresh weight, relative value (untreated plot = 100), Comparison 1: stress-free: tomato soil culture, EC 1, pF 1.7, two-leaf stage; for Fresh weight, relative value (untreated plot = 100), Test 1 / Fresh weight, relative value (untreated plot = 100), Test 4 / Fresh weight, relative value (untreated plot = 100), Test 2 / Fresh weight, relative value (untreated plot = 100), Test 3: tomato soil culture; for Fresh weight, relative value (untreated plot = 100), Test 1: EC 1, pF 2.8, two-leaf stage; for Fresh weight, relative value (untreated plot = 100), Test 4: EC 1, pF 3.5, five-leaf stage; for Fresh weight, relative value (untreated plot = 100), Test 2: EC 1, pF 3.5, two-leaf stage; for Fresh weight, relative value (untreated plot = 100), Test 3: EC 1, pF 4.1, two-leaf stage
Procedure: The environmental conditions in a climatic chamber were controlled so as to have a temperature of 23° C., an illuminance by a fluorescent light of 5000 Lux, and a daily light-dark cycle of a 16-hour light period and an 8-hour dark period. Tomatoes as prepared above were transplanted in size-3 (9 cm) pots. During the test period, the pF value was controlled by adding a suitable amount of tap water once a day so as to attain a specific drying stress value. A treatment solution containing a compound of Table 1 in a specific concentration (the remainder was water) was prepared and sprayed onto the leaves or applied to the underground portions. […] A comparative example was constructed to reflect the drying stress-free optimum cultivation conditions to investigate the plant energizing ability. […] Moreover, when the products of the present invention and the comparative products were compared, the stress tolerance imparting ability of the products of the present invention was higher in respective drying stress conditions.

Substance	Fresh weight, relative value (untreated plot = 100), Test 5 ([1]; leaf)	Fresh weight, relative value (untreated plot = 100), Test 8 ([1]; leaf)	Fresh weight, relative value (untreated plot = 100), Test 6 ([1]; leaf)	Fresh weight, relative value (untreated plot = 100), Test 7 ([1]; leaf)	Fresh weight, relative value (untreated plot = 100), Comparison 2 ([1]; leaf)	Fresh weight, relative value (untreated plot = 100), Test 1 ([2]; leaf)	Fresh weight, relative value (untreated plot = 100), Test 4 ([2]; leaf)	Fresh weight, relative value (untreated plot = 100), Test 2 ([2]; leaf)	Fresh weight, relative value (untreated plot = 100), Test 3 ([2]; leaf)	Fresh weight, relative value (untreated plot = 100), Comparison 1 ([3]; leaf)	Fresh weight, relative value (untreated plot = 100), Test 1 ([3]; leaf)	Fresh weight, relative value (untreated plot = 100), Test 4 ([3]; leaf)	Fresh weight, relative value (untreated plot = 100), Test 2 ([3]; leaf)	Fresh weight, relative value (untreated plot = 100), Test 3 ([3]; leaf)	other results
POE (20) sorbitan monolauric acid ester [Product of present invention 12]	136	147	160	135	101	131	146	155	133	101	130	148	162	135	Fresh weight, relative value (untreated plot = 100), Comparison 1 ([2]; leaf): 101
POE (20) sorbitan monooleic acid ester [Product of present invention 1]															Fresh weight, relative value (untreated plot = 100), Test 5 ([1]; underground portion): 145; Fresh weight, relative value (untreated plot = 100), Test 8 ([1]; underground portion): 160; Fresh weight, relative value (untreated plot = 100), Test 6 ([1]; underground portion): 190; Fresh weight, relative value (untreated plot = 100), Test 7 ([1]; underground portion): 145; Fresh weight, relative value (untreated plot = 100), Comparison 2 ([1]; underground portion): 104; Fresh weight, relative value (untreated plot = 100), Test 1 ([2]; underground portion): 142; Fresh weight, relative value (untreated plot = 100), Test 4 ([2]; underground portion): 156; Fresh weight, relative value (untreated plot = 100), Test 2 ([2]; underground portion): 185; Fresh weight, relative value (untreated plot = 100), Test 3 ([2]; underground portion): 140; Fresh weight, relative value (untreated plot = 100), Comparison 1 ([2]; underground portion): 103; Fresh weight, relative value (untreated plot = 100), Comparison 1 ([3]; underground portion): 103; Fresh weight, relative value (untreated plot = 100), Test 1 ([3]; underground portion): 134; Fresh weight, relative value (untreated plot = 100), Test 4 ([3]; underground portion): 160; Fresh weight, relative value (untreated plot = 100), Test 2 ([3]; underground portion): 188; Fresh weight, relative value (untreated plot = 100), Test 3 ([3]; underground portion): 145
Sucrose fatty acid ester (C18, HLB = 15) [Product of present invention 20]	121	133	138	125	103	120	129	134	119	103	119	136	139	124	
